Structures can show the parent of a compound that is named as a salt. Where two headings read alike, the source gives them in different places.
How the values were obtained:
[1] = test system: Chronic Hyperalgesia Induced by PGE2 in Rats; test: Analgesic activity on chronic hyperalgesia induced by PGE2 in rats (Randall and Selitto test); type: in vivo; conditions: Rattus norvegicus, sc, 0.5 h; Sprague-Dawley rats, 10 mg/kg s.c., 30 min before measuring the pain threshold, compared with vehicle controls
Protocol: Analgesic Activity on Chronic Hyperalgesia Induced by PGE2 in Rats
The test consists in determining the analgesic effect of the test compound in rats by the Randall and Selitto test, in which chronic hyperalgesia has been triggered by intraplantar injection of PGE2 over 4 days into a leg, according to a protocol adapted from Nakamura-Craig et al (Pain, 63: 33-37. 1995).
The study is carried out on batches of 120-140 g Sprague-Dawley rats to which 100 ng of PGE2 is administered in a volume of 100 μl by the intraplantar route, for 4 consecutive days twice a day; this causes chronic hyperalgesia in the leg from the 5th day, for at least one week. On the day of the test, in the morning, the threshold of reaction to pain is checked by the Randall and Selitto test, and animals whose threshold is ψ100 arbitrarily defined units are selected. In the afternoon, the measurement is repeated after prior administration by the s.c. route of a solution of the test compound; this administration is carried out 30 min before measuring the pain threshold. For each batch, the analgesic activity (%) is calculated from the means of the thresholds measured before and after treatment, as compared with that of the control animals, who received only the vehicle.

Na+ channels = test: 22Na+ influx into SK-N-SH neuroblastoma cells under veratridine stimulation; type: cell-based
Na+ channel = conditions: rat cerebral cortex synaptosomes, 10 nM [3H]batrachotoxin, 90 min at 25° C.; read-out: [3H] BTX assay: Na+ channel binding Ki
[2] = human SK-N-SH cells, veratridine-induced influx, 10 min at 37° C.; read-out: 22Na influx IC50

Row | Structure (SMILES) | melting point [°C] | inhibition in vivo at 10 mg/kg [1] [%] | IC50 (Na+ channels; [2]) [µM] | other results
1 | O=C1c2ccccc2CCC12CCN(CC1CC1)CC2 (as salt: hydrochloride) [Example 2, 1′-cyclopropylmethyl-3,4-Dihydro-1-oxospiro[naphthalene-2(1H),4′-piperidine]] | 243 | – | – | –
2 | O=C1c2ccccc2CCC12CCN(CCC(c1ccccc1)c1ccccc1)CC2 (as salt: hydrochloride) [Example 8, 1′-(3,3-diphenylpropyl)-3,4-Dihydro-1-oxospiro[naphthalene-2(11H),4′-piperidine]] | 257 | – | – | –
3 | COc1cccc2c1CCC1(CCN(CC3CC3)CC1)C2=O (as salt: hydrochloride) [Example 11, 1′-(cyclopropylmethyl)-3,4-Dihydro-5-methoxy-1-oxospiro[naphthalene-2(1H),4′-piperidine]] | 244 | – | – | –
4 | COc1ccc2c(c1)CCC1(CCN(CCCc3ccccc3)CC1)C2=O [Example 47] | – | 66 | 0.6 | –
5 | COc1ccc2c(c1)CCC1(CCN(CC3CCC3)CC1)C2=O [Example 43] | – | 39 | 6 | –
6 | Cc1cc(C)c2c(c1)C(=O)C1(CC2)CCN(CC2CC2)CC1 (as salt: hydrochloride) [Example 9, 1′-(cyclopropylmethyl)-3,4-Dihydro-5,7-dimethyl-1-oxospiro[naphthalene-2(1H),4′-piperidine]] | > 260 | – | – | –
7 | COc1ccc2c(c1)CCC1(CCN(CC3CC3)CC1)C2=O [Example 10, 1′-(cyclopropylmethyl)-3,4-Dihydro-6-methoxy-1-oxospiro[naphthalene-2(1H),4′-piperidine]] | – | 100 | 30 | –
8 | O=C1c2ccccc2CCC12CCN(CC1CCCCC1)CC2 (as salt: hydrochloride) [Example 4, 1′-cyclohexylmethyl-3,4-Dihydro-1-oxospiro[naphthalene-2(1H),4′-piperidine]] | 265 | – | – | –
9 | O=C1c2ccccc2CCC12CCN(CC1CC1)CC2 [Example 2, 1′-cyclopropylmethyl-3,4-Dihydro-1-oxospiro[naphthalene-2(1H),4′-piperidine]] | – | 49 | 10.7 | –
10 | COc1ccc2c(c1)CCC1(CCN(CC3CC3)CC1)C2=O (as salt: hydrochloride) [Example 10, 1′-(cyclopropylmethyl)-3,4-Dihydro-6-methoxy-1-oxospiro[naphthalene-2(1H),4′-piperidine]] | > 255 | – | – | –
11 | O=C1c2ccccc2CCC12CCN(CC1CCC1)CC2 (as salt: hydrochloride) [Example 3, 1′-cyclobutylmethyl-3,4-Dihydro-1-oxospiro[naphthalene-2(1H),4′-piperidine]] | 235 | – | – | –
12 | O=C1c2ccccc2CCC12CCN(CCC(c1ccccc1)c1ccccc1)CC2 [Example 8, 1′-(3,3-diphenylpropyl)-3,4-Dihydro-1-oxospiro[naphthalene-2(11H),4′-piperidine]] | – | 47 | 0.97 | –
13 | O=C1c2ccccc2CCC12CCN(C/C=C/c1ccccc1)CC2 [Example 7, 1′-cinnamyl-3,4-Dihydro-1-oxospiro[naphthalene-2(1H),4′-piperidine]] | – | 57 | 0.94 | –
14 | O=C1c2ccccc2CCC12CCNCC2 (as salt: hydrochloride) | 235 | – | – | –
15 | O=C1c2ccccc2CCC12CCN(CCC1CC1)CC2 (as salt: hydrochloride) [Example 6, 1′-cyclopropylethyl-3,4-Dihydro-1-oxospiro[naphthalene-2(1H),4′-piperidine]] | 244 | – | – | –
16 | COc1ccc2c(c1)CCC1(CCNCC1)C2=O [Example 70, 3.4-Dihydro-6-methoxy-1-oxospiro[naphthalene-2(1H),4′-piperidine]] | – | 46 | – | –
17 | COc1cccc2c1CCC1(CCN(CC3CCC3)CC1)C2=O [Example 36] | – | 51 | 3.4 | Ki (Na+ channel): 0.475 µM
18 | O=C1c2ccccc2CCC12CCN(CCc1ccccc1)CC2 (as salt: hydrochloride) | > 275 | – | – | –
19 | O=C1c2ccccc2CCC12CCN(CCC1CC1)CC2 [Example 6, 1′-cyclopropylethyl-3,4-Dihydro-1-oxospiro[naphthalene-2(1H),4′-piperidine]] | – | 67 | 3.4 | –
20 | COc1ccc2c(c1)C(=O)C1(CC2)CCN(CCC2CC2)CC1 [Example 49] | – | 38 | 7.6 | Ki (Na+ channel): 2.18 µM
21 | COc1ccc2c(c1)CCC1(CCN(CCC3CC3)CC1)C2=O [Example 42] | – | 46 | 4.3 | –
22 | O=C1c2ccccc2CCC12CCN(CCCc1ccccc1)CC2 [Example 33] | – | 81 | – | IC50 (Na+ channels; read-out: 22Na influx IC50; human SK-N-SH cells, veratridine-induced influx, 10 min at 37° C.): 1.2 µM; Ki (Na+ channel): 0.291 µM
23 | O=C1c2ccccc2CCC12CCN(C/C=C/c1ccccc1)CC2 (as salt: hydrochloride) [Example 7, 1′-cinnamyl-3,4-Dihydro-1-oxospiro[naphthalene-2(1H),4′-piperidine]] | 228 | – | – | –
